Test results: US20220211752A1, “METHIONINE AND CYSTEINE DEPRIVATION DIET AND FORMULATIONS TO INCREASE EFFECTIVENESS OF CANCER THERAPY” (THE TRUSTEES OF COLUMBIA UNIVERSITY IN THE CITY OF NEW YORK, priority 2020, published 2022)
Peptide text beside a SMILES is read from it. * marks the point of attachment. Cbz = O=C(OCc1ccccc1)*; CH2F = FC*

What was measured:
MG1 cells [1] = experiment: Bodipy-C11 flow cytometry, IKE with or without CMD; format: cell-based, mouse; conditions: 10 uM Ferrostatin-1
Excerpt: (§1) Adherent cells were lifted using TrypLE (ThermoFisher™ Scientific).
(§2) A basis for the invention that depriving glioma cells of sulfur containing amino acids (cystine and methionine) will result in lower levels of glutathione (which normally protects cells from lipid peroxidation) and therefore would sensitize the glioma cells to ferroptosis inducing drugs. […] Both these effects were rescued by ferrostatin.

MG4 cells = experiment: Bodipy-C11 flow cytometry, radiation plus CMD; format: cell-based, mouse; conditions: Ferrostatin-1
Excerpt: as §1
Radiation is a known ferroptosis inducer. […] Treatment of both mouse glioma cells (MG1 and MG4) and human GBM cells (TS543) is shown.

mouse glioma cell lines = experiment: Dose response cell viability, IKE with or without CMD; format: cell-based; conditions: 10 uM Ferrostatin-1
Excerpt: as §2

MG1 cells [2] = experiment: Live cell confocal microscopy of Bodipy-C11 lipid peroxidation; format: cell-based, mouse
Experimental: 1.3×10^5 MG1 cells were plated on poly-L-lysine coated 35 mm glass-bottom dishes (MatTek™ life sciences) for 24 hours. Cells were incubated for 30 minutes in basal media (DMEM (Gibco™ 11965092) with 0.5% FBS (Gibco™ 16000044), antibiotic-antimycotic (Thermo Scientific™ 15240096), N2 supplement (Thermo Fisher Scientific™, 17502-048), and 10 ng/ml each of recombinant human PDGF-AA (Peprotech, 100-13A) and FGFb (Peprotech™. 10018B50UG)) media containing 5 μM BODIPY-C11. Media were replaced with fresh basal media and cells were imaged on a Nikon™ A1RMP confocal microscope at 37° C. in a humidified chamber with 5% C02. Time-lapse images were acquired using a 40×/1.3 NA oil immersion objective and focus was maintained using the Perfect Focus™ System. Excitation was achieved using 488 nm and 561 nm laser illumination; emission of the oxidized and reduced forms of BODIPY-C11 was captured using a 525/50 and a 595/50 filter, respectively. At time 0, RSL3 (500 nM) or RSL3 (500 nM)+Ferrostatin (2 μM) were added and images were acquired every 30 seconds for a total of 30 minutes. Images were exported to ImageJ™ for analysis.

[3] = system: human diffuse astrocytoma slice culture; experiment: H2DCFDA flow cytometry of human glioma slice cultures, IKE plus radiation; format: cell-based; conditions: 10 μM IKE, 0 or 2 Gy radiation for 24 hours
Excerpt: To further understand the translational relevance of these findings to human glioma samples, an acute organotypic slice culture model was used. […] The tissue was placed on a Millicell™ cell culture insert in treatment media. This media comprised of DMEM+ Hams-F12 without cysteine or methionine (MyBioSource, MBS652871) or DMEM+ Hams-F12 with cysteine and methione to create the to varied conditions that would undergo radiation or IKE treatment.
Horizontal bars indicate H2DCFDA-positive cell populations.

MG3 cells = experiment: 384-well dose-response to GPX4 inhibitors with or without CMD; format: cell-based, mouse; conditions: dose response assays, with or without 2 uM Ferrostatin-1
Experimental: (§3) Cell viability was assessed using the Cell-Titer^Glo™ luminescence assay. Murine glioma cells were plated in triplicate at a density of 6,000 cells per well in a 96-well plate (ThermoFisher Scientific™). Twenty-four hours after plating, media was removed and treatment media was added. Viability was assessed 24 hours after treatment. Human glioma cells were plated at a density of 2,000 cells per well. Cells were plated in normal media or cysteine/methionine deprived media. Twenty-four hours after plating, media was changed to begin drug treatment. Forty-eight hours after plating, luminescence was measured.
(§4) Averages across 3 independent experiments are reported. For experiments conducted in 384-well plates, mouse glioma cells were plated at a density of 1,600 cells per well and human glioma cells were plated at a density of 1,000 cells per well. The assays as described above were quantified using Cell-Titer Glo™ (Promega™) ATP based bioluminescence. To determine cell viability, a 50% Cell Titer Glo™ and 50% cell culture medium was added to each well and incubated at room temperature for 10 minutes. Luminescence was assessed on a Promega™ GloMax™ Microplate Reader.

MG1 cells [4] = experiment: Dose-response of MG1 cells to RSL3 plus cell death inhibitors; format: cell-based, mouse; conditions: 5 uM ZVAD-FMK; 2 uM Nec-1s
Experimental: as §3, §4

glioma cell lines = experiment: Cell viability dose-response to RSL3 (Cell-Titer Glo); format: cell-based, mouse, human
Experimental: as §3, §4
To test this, media was adapted for cell culture based on the previous ferroptosis permissive glioma culture methods. […]

[5] = system: human primary glioblastoma; experiment: H2DCFDA flow cytometry of ex vivo organotypic slice cultures, RSL3 with or without CMD; format: cell-based; conditions: 100 nM RSL3 plus CMD
Experimental: Mice were sacrificed by cervical dislocation.
Slice cultures were dissociated in papain (9.5 mL DPBS, 500 μL papain, 1.67 μL 6 M NaOH, 2 mg L-cysteine, 100 μL DNAse) and incubated in a warm bath shaker at 37° C. for 30 minutes. After centrifugation at 400×g for 5 minutes, the papain was aspirated and slices were resuspended in ice cold PBS and triturated with glass tip Pasteur pipettes. This process was repeated one time and then the cell suspension was resuspended in a 30% sucrose solution and spun at 1000×g for 5 minutes. The cell suspension was resuspended in PBS and stained with Calcein Blue (final concentration 5 μM) and H2DCFDA (final concentration 10 μM), incubated in a water bath at 37° C. for 10 minutes. Suspensions were spun down at 500×g for 5 minutes and resuspended in PBS and taken for flow cytometric analysis on a LSRIII Fortessa™ machine. Cell and Slice culture suspensions were filtered in polystyrene flow tubes (Fisher Scientific™). Data were collected on an LSRIII Fortessa™ flow analyzer and analyzed using FlowJo™ v10.
The slices were treated with RSL3 and assayed via flow cytometry for levels of reactive oxygen species (ROS) using H2DCFDA.

CCOC(=O)c1ccc(NC2CCCCC2)c(N)c1 [Ferrostatin-1]
rescue of CMD plus IKE lipid peroxidation (MG1 cells [1]): rescued | rescue of lipid peroxidation from radiation plus CMD (MG4 cells): complete rescue | rescue of CMD enhanced IKE induced cell death (mouse glioma cell lines): rescued | effect on RSL3 induced lipid peroxidation (MG1 cells [2]; 500 nM RSL3 and 2 uM Ferrostatin-1): prevented this lipid peroxidation

CC(C)Oc1ccc(C(=O)Cn2ccnc2)cc1-n1c(CN2CCN(C(=O)COc3ccc(Cl)cc3)CC2)nc2ccccc2c1=O [IKE, imidazole ketone erastin]
H2DCFDA-positive cells, interaction with radiation [3]: synergy of radiation with IKE treatment

Cc1onc(C(=O)N2CCN(C(c3ccc(Cl)cc3)c3ccc(Cl)cc3)CC2)c1[N+](=O)[O-] [ML-210]
ferroptosis in combination with CMD (MG3 cells): synergistic enhancement of ferroptosis with CMD

CN1C(=O)NC(Cc2c[nH]c3c(Cl)cccc23)C1=O (stereo not shown) [Nec-1s]
rescue of RSL3 mediated cell death (MG1 cells [4]): not rescuable

COC(=O)c1ccc([C@@H]2c3[nH]c4ccccc4c3C[C@@H](C(=O)OC)N2C(=O)CCl)cc1 [RSL3]
ferroptosis in combination with CMD (MG3 cells): synergistic enhancement of ferroptosis with CMD | cell viability with CMD plus RSL3 (glioma cell lines; dose response curves, dual treatment (FIG. 30)): stark difference in cell viability with dual treatment | sensitivity to ferroptosis by RSL3 (glioma cell lines; five cell lines assayed, 384-well dose-response): baseline sensitivity to ferroptosis | reactive oxygen species (ROS) levels, H2DCFDA [5]: increased ROS to levels equivalent to a high dose of RSL3 (500 nM) | lipid peroxidation (Bodipy-C11 green fluorescence shift) (MG1 cells [2]; 500 nM RSL3): induction of lipid peroxidation

COC(=O)C[C@H](NC(=O)[C@H](C)NC(=O)[C@@H](NC(=O)OCc1ccccc1)C(C)C)C(=O)CF [ZVAD-FMK] (Cbz-Val-Ala-Asp(OMe)-CH2F)
rescue of RSL3 mediated cell death (MG1 cells [4]): not rescuable
